Literature values, collected in patent publication US20180161299A1, “ESSENTIAL NUTRIENTS AND RELATED METHODS” (Balchem Corporation, priority 2016, published 2018).

Legend:
[1] = pregnant women, choline intake increased from 480 mg to 930 mg

Row | Compound | choline excreted in the urine [1] | increase in the amount of B12 analogues present in the GI tract and in the circulation (large oral and systemic doses of B12) | vitamin B12 absorbed by diffusion from the gastrointestinal tract (large oral doses (500 μg to 5000 μg)) | vitamin B12 absorbed (typical oral vitamin B12 supplementations)
1 | C[N+](C)(C)CCO [choline, N,N,N-trimethylethanolammonium cation] | little, if any |  |  | 
2 | cobalamin [Vitamin B12] |  | more than 10 fold | less than 1% | less than 1%
